Common to all, as to type: cell-based, human
In experiment [1] the test system is transiently suspended Caco-2 cells. The experiment in a line: Apoptosis of transiently suspended cells during readhesion (annexin V assay). To be noted: Caco-2 transiently suspended, treated and allowed to readhere. As for the experimental part: Single cell suspensions were plated at 100,000 cells per well in 24-well plates in media containing DMSO, BAY 11-7082, BAY 11-7085, or MG-132 for 8-24 hours in an incubator. Alternatively, DMSO, BAY 11-7082, BAY 11-7085, or MG-132 were added to cells that were confluent and adherent for several days. The nonadherent cells were aspirated off with the media and spun for 3 minutes at 2,000 rpm in 15 mL polypropylene tubes. The adherent cells were washed twice with PBS, dispersed in trypsin, and spun down for 3 minutes at 2,000 rpm in 15 mL polypropylene tubes. […] 400 μL of binding buffer was added to each tube and the cells were analyzed by flow cytometry immediately. The percent of apoptosis was determined as the percent of annexin V-positive, propidium iodide-negative cells of the total cells counted.
Since trypsin can activate protease-activated receptor-2 in colon cancer cell lines, which then results in increased cell proliferation, (Darmoul et al., “Initiation of human colon cancer cell proliferation by trypsin acting at protease-activated receptor-2,” Br J Cancer 85:772-9, 2001). NF-κB activation was determined in adherent and confluent DLD-1, HCT-116, Caco-2 and HT-29 cells that were removed from plastic dishes by trypsin or scraping.

The subject of experiment [2] is transiently suspended HT-29 cells. Described as above. How it is done:
HT-29 cells that were either transiently suspended with trypsin-EDTA or adherent for three days, were treated at time zero with DMSO or 10-100 μM BAY 11-7085. The percent of apoptotic cells was determined using the annexin V flow cytometry assay and graphed versus the dose of BAY 11-7085. FIG. 4B are photographs showing DLD-1, FIG. 4C are photographs showing HCT-116, and FIG. 4D are photographs showing HT-29 cells that were transiently suspended in trypsin-EDTA and allowed to readhere to glass coverslips for 1-24 hours. The cells were fixed and immunostained with an NF-κB p65 subunit monoclonal antibody.
The transiently suspended cells were lysed and allowed to bind to DNA oligonucleotides, containing the NF-κB consensus binding site, that were immobilized to 96-well plates. NF-κB protein bound to the oligonucleotides was detected by an antibody to the p65 subunit that only recognized p65 that is bound to DNA. The positive control was HeLa cells that were stimulated with TNFα. A control was performed using excess free NF-κB oligonucleotides (Competitor). […] NF-κB binding activity was determined by the TransAM assay as in FIG. 5A. […] The data shown represent typical results of three separate experiments. […] An immunoblot for COX-2 was performed.
(§1) The percentage of apoptotic cells was determined using the annexin V assay. The data points represent the averages of three experiments; bars, +−.SE. E. DLD-1 and F. HT-29 cells were transduced with an adenovirus containing the IκB super-repressor construct. After 3 days, the cells were transiently suspended and allowed to readhere in the presence of subapoptotic concentrations of BAY 11-7085 or DMSO (vehicle) for 8 hours. The data are expressed as fractions of cells surviving compared with the controls (no adenovirus) and were quantitatively determined by staining the remaining adherent cells with crystal violet.
Single cell suspensions were plated at 100,000 cells per well in 24-well plates in media containing DMSO, BAY 11-7082, BAY 11-7085, or MG-132 for 8-24 hours in an incubator. Alternatively, DMSO, BAY 11-7082, BAY 11-7085, or MG-132 were added to cells that were confluent and adherent for several days. The nonadherent cells were aspirated off with the media and spun for 3 minutes at 2,000 rpm in 15 mL polypropylene tubes. The adherent cells were washed twice with PBS, dispersed in trypsin, and spun down for 3 minutes at 2,000 rpm in 15 mL polypropylene tubes. The nonadherent and adherent cells were resuspended in 1× binding buffer (10 mM HEPES/NaOH, pH 7.4, 140 mM NaCl, and 2.5 mM CaCl2) to a final concentration of 10^6 cells/mL. 100 μL of the cell solution were transferred to a 5 mL culture tube and incubated with 5 μL of annexin V-FITC-conjugated monoclonal antibody (Pharmingen) and 10 μl, of propidium iodide (from a 50 μg/mL stock solution made in PBS) in the dark at 25° C. for 15 minutes. 400 μL of binding buffer was added to each tube and the cells were analyzed by flow cytometry immediately. The percent of apoptosis was determined as the percent of annexin V-positive, propidium iodide-negative cells of the total cells counted.
Various concentrations of BAY 11-7085 were added to HT-29 cells that were transiently suspended in trypsin-PBS for approximately 15 minutes before replating. The transiently suspended cells were quickly allowed to readhere in order to prevent anoikis. Alternatively, BAY 11-7085 was added to adherent HT-29 cell monolayers.

The test system of another experiment is DLD-1 and HT-29 cells. Put plainly: Readhesion survival of cells transduced with IκB super-repressor adenovirus (crystal violet). How it is done: as §1
DLD-1 and HT-29 cells that were approximately 60-70% confluent were transduced with Ad-IκB super-repressor by adding 1-50 μL of purified virus to the cells. […] In a parallel experiment, the transduced cells were resuspended and allowed to readhere in BAY 11-7085 for 8 h. The percentage of surviving (nonapoptotic) cells was determined using crystal violet staining.
The specific involvement of NF-κB in the apoptotic mechanism of BAY 11-7085 was examined specifically. […] The transduced DLD-1 and HT-29 cells were then transiently suspended and allowed to readhere at concentrations of BAY 11-7085 below the in vitro apoptotic threshold (>20 μM) for these cell lines. […] Therefore, inhibition of NF-κB is important to the apoptotic effect of BAY 11-7085 during colon cancer cell readhesion.

Some results are limits rather than exact numbers.

As for `CC(C)(C)c1ccc(S(=O)(=O)/C=C/C#N)cc1` [BAY 11-7085, (2E)-3-[4-(tertiarybutylphenyl)sulfonyl]-2-propenenitrile], the “BAY 11-7085-induced apoptosis during readhesion” value in experiment [1] is given as “moderate increase”; in experiment [2] (HT-29 transiently suspended, treated and allowed to readhere, 8 hours), “showed the same propensity for BAY 11-7085-induced apoptosis”. Also, in experiment [2] (all concentrations tested (10-100 μM), cells suspended in trypsin-PBS then replated), the “apoptosis of transiently suspended HT-29 cells” value is reported as “caused a significant increase in apoptosis”. In addition, in the experiment with DLD-1 and HT-29 cells (DLD-1 and HT-29 cells during readhesion), the “in vitro apoptotic threshold” value was > 20 µM. Also, the “apoptotic threshold of BAY 11-7085 compared with the controls” value in the experiment with DLD-1 and HT-29 cells (DLD-1 and HT-29 expressing IκB super-repressor, readhesion 8 hours) is reported as “significantly lowered the apoptotic threshold”.

The values are drawn from patent publication US20110251135A1, “INHIBITORS OF PERITONEAL SEEDING OF CANCER CELLS” (University of Utah Research Foundation, priority 2008, published 2011).
